In patent US20240139126A1, “NUTRITIONAL COMPOSITIONS FOR SKELETAL MUSCLE” (MITOCHOLINE LTD, priority 0001, published 2024):

Experiments:
primary myotube cultures = experiment: Mitochondrial membrane potential (TMRM fluorescence) in primary myotube cultures; assay type: cell-based, rat; details: DiSu 50 μM; NAM 20 μM
Method: Primary myotube cells were obtained from postnatal day 0-2 (P0-P2) rat pups which were sacrificed by decapitation. Briefly, the rats were immersed in 70% ethanol and the hind-limbs removed under a dissection microscope, in dissection solution containing Dulbecco's Phosphate Buffered Saline (PBS) with penicillin streptomycin (5000 units/ml) and Amphotericin B (2.5 mg/L). The tissues were then digested in 0.2% collagenase solution at 37° C. for 30-40 minutes. The reaction was stopped by adding 2-3 ml fetal bovine serum (FBS), and the tissue suspension was centrifuged at 2010 rpm (700 g) for 10 minutes. The cell pellet was resuspended in pre-warmed growth medium, Dulbecco's modified Eagle's medium (DMEM), containing 20% FBS, 100 i.u./ml penicillin and 200 i.u./ml streptomycin], and plated on 22 mm coverslips that were pre-coated with 0.2% gelatin for 1 hour at 37° C. […]
Tetramethyl rhodamine methyl ester (TMRM) was used to study the changes of the mitochondrial membrane potential (Δψm). […] TMRM fluorescence was excited at 543 nm (HeNe laser), and emission was measured at >560 nm. […] Therefore, the changes in potential are reflected by changes in fluorescence intensity within the mitochondria which is measured after thresholding out the background signal from the cytosol to give a mean value per pixel within the mitochondrial population of a cell. […]

[1] = test system: dexamethasone-treated primary myotubes; experiment: Energy capacity of primary myotubes in dexamethasone-induced sarcopenia cell culture model; assay type: cell-based, rat; details: in words; for time until cell total energy exhaustion and collapse: IAA 20 μM + oligomycin 2 μg/ml; for energy capacity / energy depletion compared to control cells: IAA + oligomycin
Method: Primary rat myocyte cultures were prepared as described by Yao G., et al. ((Yao G., et. al. (2011) J Cell Sci v.124: 4194-4202. doi: 10.1242/jcs.088260).
All experiments were performed with 5-11 days cultured cells.
To test energetic capacity of cultures myotubes in atrophic conditions, myocyte cultures were differentiated for 5 days followed incubation in the presence of 1, 10, and 100 μM dexamethasone for 24 h.
All cultures were treated with an inhibitor of the ATP production in cellular cytoplasm via glycolysis, Iodoacetic Acid (IAA) (20 μM), and an inhibitor of the ATP production in mitochondria by oxidative phosphorylation, oligomycin (2 μg/ml). […] The cellular concentration of both cations can be indirectly measured by measuring fluorescence of Mag Fura-2 dye.

primary myotubes [2] = experiment: Mitophagy/autophagy: co-localization of mitochondria and lysosomes in primary myotubes; assay type: cell-based, rat; details: blend 50 μM DiSu+20 μM NAM; individual compounds in corresponding molar amounts
Method: (§1) Primary Skeletal Muscle Cell culture. Primary myotube cells were obtained from postnatal day 0-2 (P0-P2) rat pups which were sacrificed by decapitation. Briefly, the rats were immersed in 70% ethanol and the hind-limbs removed under a dissection microscope, in dissection solution containing Dulbecco's Phosphate Buffered Saline (PBS) with penicillin streptomycin (5000 units/ml) and Amphotericin B (2.5 mg/L). The tissues were then digested in 0.2% collagenase solution at 37° C. for 30-40 minutes. The reaction was stopped by adding 2-3 ml fetal bovine serum (FBS), and the tissue suspension was centrifuged at 2010 rpm (700 g) for 10 minutes. The cell pellet was resuspended in pre-warmed growth medium, Dulbecco's modified Eagle's medium (DMEM), containing 20% FBS, 100 i.u./ml penicillin and 200 i.u./ml streptomycin], and plated on 22 mm coverslips that were pre-coated with 0.2% gelatin for 1 hour at 37° C. Cells were then cultured in a humidified CO2 incubator (5% CO2 in air) at 37° C. After 2 or 3 days, the medium was changed to a low-serum medium (DMEM containing 10% FBS without antibiotics), and was subsequently renewed every 3 or 4 days. All experiments were performed in vitro between days 2 and 11 in culture when spindle-shaped myoblasts had proliferated and aligned themselves for fusion (˜70% confluency).

primary myotubes [3] = experiment: NADH autofluorescence: redox index and mitochondrial pool of NADH in primary myotubes; assay type: cell-based, rat; details: blends 100 μM DiSu+40 μM NAM, 50 μM DiSu+20 μM NAM, choline 100 μM, succinate 50 μM
Method: as §1
NADH autofluorescence was excited at 351 and measured at 375-470 nm.

[4] = test system: adult onset mitochondrial myopathy patients; parameters: dose or concentration left out as unconfirmed; details: cited from earlier work
mice = details: dietary supplementation; cited from earlier work

Compound	TMRM fluorescence compared to control (primary myotube cultures)	time until cell total energy exhaustion and collapse [1]	autophagy (co-localization of mitochondria and lysosomes) (primary myotubes [2])	energy capacity / energy depletion compared to control cells [1]	redox index (NADH-dependent mitochondrial respiration) (primary myotubes [3])	blood and muscle NAD levels, muscle strength and mitochondrial biogenesis [4]	endurance exercise ability (mice)
C[N+](C)(C)CCO.C[N+](C)(C)CCO.O=C([O-])CCC(=O)[O-] [DiSu, dicholine succinate]	increase in TMRM fluorescence	extended the time until cell total energy exhaustion and collapse	significantly increase autophagy				
NC(=O)c1cccnc1 [NAM, nicotinamide]	increase in TMRM fluorescence		not	Neither choline or succinate or NAM treatments had a noticeable effect	did not induce significant changes	increased in all human subjects	
O=C([O-])CCC(=O)[O-].[Na+].[Na+] [Succinate*, Sodium succinate (salt)]			not	Neither choline or succinate or NAM treatments had a noticeable effect	did not induce significant changes		increased endurance exercise ability
CN(CC(=O)O)C(=N)N [creatine]		extended the time until cell total energy exhaustion and collapse					
Choline bitartrate [Choline**]			not				
